What was measured:
[1] = molecular target: T1, Toll-like receptor 2 (Homo sapiens, UniProt O60603); assay: Agonist activity at TLR2 (unknown origin)
[2] = molecular target: Toll-like receptor 2 (Mus musculus) (UniProt Q9QUN7); assay: Agonist activity at mouse TLR2 transfected in HEK293 cells relative to control; assay type: cell-based; set-up: concentration or dose not given beside the values
[3] = molecular target: T1, Toll-like receptor 2; assay: Agonist activity at human TLR2 transfected in HEK293 cells; assay type: cell-based

T1 sequence (O60603 whole entry): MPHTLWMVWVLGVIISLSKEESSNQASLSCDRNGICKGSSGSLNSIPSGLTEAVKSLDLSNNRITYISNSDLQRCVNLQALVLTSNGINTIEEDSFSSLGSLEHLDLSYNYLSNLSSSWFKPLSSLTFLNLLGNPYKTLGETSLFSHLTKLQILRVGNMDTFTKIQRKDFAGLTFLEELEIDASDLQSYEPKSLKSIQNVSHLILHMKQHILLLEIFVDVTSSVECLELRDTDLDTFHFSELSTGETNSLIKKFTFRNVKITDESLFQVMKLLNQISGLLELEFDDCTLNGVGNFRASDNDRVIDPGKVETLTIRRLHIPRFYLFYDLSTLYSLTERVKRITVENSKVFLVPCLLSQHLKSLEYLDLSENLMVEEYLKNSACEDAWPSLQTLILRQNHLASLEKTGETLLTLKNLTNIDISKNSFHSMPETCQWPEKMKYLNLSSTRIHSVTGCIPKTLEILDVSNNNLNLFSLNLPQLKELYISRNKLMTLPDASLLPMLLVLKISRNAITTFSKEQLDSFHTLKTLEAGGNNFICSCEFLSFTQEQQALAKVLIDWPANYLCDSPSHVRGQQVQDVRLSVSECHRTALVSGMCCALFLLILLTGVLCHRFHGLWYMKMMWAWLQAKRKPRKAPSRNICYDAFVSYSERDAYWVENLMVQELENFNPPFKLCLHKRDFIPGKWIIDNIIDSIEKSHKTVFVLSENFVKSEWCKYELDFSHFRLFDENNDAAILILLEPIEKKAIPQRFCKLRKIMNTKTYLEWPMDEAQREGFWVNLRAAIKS
Toll-like receptor 2 (Mus musculus), sequence (Q9QUN7 whole entry): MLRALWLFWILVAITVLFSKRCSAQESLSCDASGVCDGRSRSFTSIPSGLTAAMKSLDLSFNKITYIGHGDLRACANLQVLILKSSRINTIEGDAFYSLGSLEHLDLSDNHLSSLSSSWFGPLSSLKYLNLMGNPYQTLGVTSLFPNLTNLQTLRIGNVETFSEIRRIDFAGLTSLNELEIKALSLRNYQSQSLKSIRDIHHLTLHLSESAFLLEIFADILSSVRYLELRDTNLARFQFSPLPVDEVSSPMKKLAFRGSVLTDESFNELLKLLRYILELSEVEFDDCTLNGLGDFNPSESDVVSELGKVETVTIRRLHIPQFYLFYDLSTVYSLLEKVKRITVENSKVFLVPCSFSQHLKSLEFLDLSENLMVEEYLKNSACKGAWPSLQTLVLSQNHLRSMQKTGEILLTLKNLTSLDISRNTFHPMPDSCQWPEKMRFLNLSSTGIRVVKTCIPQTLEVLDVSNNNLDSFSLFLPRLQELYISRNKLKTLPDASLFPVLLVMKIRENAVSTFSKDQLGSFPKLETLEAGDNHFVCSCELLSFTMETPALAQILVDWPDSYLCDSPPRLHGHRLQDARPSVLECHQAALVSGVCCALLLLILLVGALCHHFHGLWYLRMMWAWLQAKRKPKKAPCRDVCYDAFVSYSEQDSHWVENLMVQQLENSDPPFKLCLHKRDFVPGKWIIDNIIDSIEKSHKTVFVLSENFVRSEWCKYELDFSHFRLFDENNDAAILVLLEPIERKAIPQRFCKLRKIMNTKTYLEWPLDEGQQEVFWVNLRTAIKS

SMILES	EC50 [3] [nM]	also measured
CCCCCCCCCCCCCCCC(=O)OCC[C@H](CS[C@H](N)C(=O)N[C@@H](CO)C(=O)N[C@@H](CCCCN)C(=O)N[C@@H](CCCCN)C(=O)N[C@@H](CCCCN)C(=O)N[C@@H](CCCCN)C(=O)N[C@@H](CO)C(=O)N[C@@H](CC(C)C)C(=O)N[C@@H](CC(C)C)C(=O)N[C@@H](CCSC)C(=O)N[C@@H](Cc1c[nH]c2ccccc12)C(=O)N[C@H](C(=O)N[C@H](C(=O)N[C@@H](CCC(N)=O)C(=O)N[C@H](C(=O)O)C(C)C)[C@@H](C)O)[C@@H](C)CC)OC(=O)CCCCCCCCCCCCCCC	–	EC50 [1]: 609 nM
CCCCCCCCCCCCCCCC(=O)N[C@H](CSCC(COC(=O)CCCCC)OC(=O)CCCCC)C(=O)N[C@@H](CO)C(=O)N[C@@H](CCCCN)C(=O)N[C@@H](CCCCN)C(=O)N[C@@H](CCCCN)C(=O)N[C@@H](CCCCN)C(=O)O (stereo not given in full)	–	Activity [2]: 0%
CCCCCCCCCCCC(=O)OC[C@H](CSC[C@@H](N)C(=O)NCCCCCN)OC(=O)CCCCCCCCCCC	1220	–
CCCCCCCCCCCCCCCC(=O)OCC(CSC[C@@H](NC(=O)CCCCCCCCCCCCC)C(=O)N[C@@H](CO)C(=O)N[C@@H](CCCCN)C(=O)N[C@@H](CCCCN)C(=O)N[C@@H](CCCCN)C(=O)N[C@@H](CCCCN)C(=O)O)OC(=O)CCCCCCCCCCCCCCC (stereo not given in full)	–	Activity ([2]; filed as agonist): > 100%
CCCCCCCCCCCCCCCC(=O)N[C@H](CSCC(COC(=O)CC)OC(=O)CC)C(=O)N[C@@H](CO)C(=O)N[C@@H](CCCCN)C(=O)N[C@@H](CCCCN)C(=O)N[C@@H](CCCCN)C(=O)N[C@@H](CCCCN)C(=O)O (stereo not given in full)	–	Activity [2]: 26%
CCCCCC(=O)N[C@H](CSCC(COC(=O)CCCCC)OC(=O)CCCCC)C(=O)N[C@@H](CO)C(=O)N[C@@H](CCCCN)C(=O)N[C@@H](CCCCN)C(=O)N[C@@H](CCCCN)C(=O)N[C@@H](CCCCN)C(=O)O (stereo not given in full)	–	Activity [2]: 0%
CCCCCCCCCC(=O)N[C@H](CSCC(COC(=O)CCCCC)OC(=O)CCCCC)C(=O)N[C@@H](CO)C(=O)N[C@@H](CCCCN)C(=O)N[C@@H](CCCCN)C(=O)N[C@@H](CCCCN)C(=O)N[C@@H](CCCCN)C(=O)O (stereo not given in full)	–	Activity [2]: < 10%
CCCCCC(=O)N[C@H](CSCC(COC(=O)CC)OC(=O)CC)C(=O)N[C@@H](CO)C(=O)N[C@@H](CCCCN)C(=O)N[C@@H](CCCCN)C(=O)N[C@@H](CCCCN)C(=O)N[C@@H](CCCCN)C(=O)O (stereo not given in full)	–	Activity [2]: 11%
CCCCCCCCCCCCCCCC(=O)OCC(CSC[C@@H](NC(=O)CCCCC)C(=O)N[C@@H](CO)C(=O)N[C@@H](CCCCN)C(=O)N[C@@H](CCCCN)C(=O)N[C@@H](CCCCN)C(=O)N[C@@H](CCCCN)C(=O)O)OC(=O)CCCCCCCCCCCCCCC (stereo not given in full)	–	Activity ([2]; filed as agonist): > 100%
CCCCCCCCCCCCCC(=O)N[C@H](CSCC(COC(=O)CCCCC)OC(=O)CCCCC)C(=O)N[C@@H](CO)C(=O)N[C@@H](CCCCN)C(=O)N[C@@H](CCCCN)C(=O)N[C@@H](CCCCN)C(=O)N[C@@H](CCCCN)C(=O)O (stereo not given in full)	–	Activity [2]: 0%
CCCCCCCCCCCC(=O)OC[C@H](CSC[C@@H](N)C(=O)NCCc1ccc(OCCC(C)C)cc1)OC(=O)CCCCCCCCCCC	8170	–
CCCCCCCCCCCC(=O)OC[C@H](CSC[C@@H](N)C(=O)NCCCCCCCCCC(=O)O)OC(=O)CCCCCCCCCCC	4400	–
CCCCCCCCCC(=O)N[C@H](CSCC(COC(=O)CC)OC(=O)CC)C(=O)N[C@@H](CO)C(=O)N[C@@H](CCCCN)C(=O)N[C@@H](CCCCN)C(=O)N[C@@H](CCCCN)C(=O)N[C@@H](CCCCN)C(=O)O (stereo not given in full)	–	Activity [2]: 26%
CCCCCCCCCCCC(=O)OC[C@H](CSC[C@@H](N)C(=O)NCCCOCCCCOCCCCN)OC(=O)CCCCCCCCCCC	810	–
CCCCCCCCCCCCCCCC(=O)OCC(CSC[C@@H](NC(=O)CCCCCCCCC)C(=O)N[C@@H](CO)C(=O)N[C@@H](CCCCN)C(=O)N[C@@H](CCCCN)C(=O)N[C@@H](CCCCN)C(=O)N[C@@H](CCCCN)C(=O)O)OC(=O)CCCCCCCCCCCCCCC (stereo not given in full)	–	Activity ([2]; filed as agonist): > 100%
CCCCCCCCCC(=O)N[C@H](CSCC(COC(=O)CCCCCCC)OC(=O)CCCCCCC)C(=O)N[C@@H](CO)C(=O)N[C@@H](CCCCN)C(=O)N[C@@H](CCCCN)C(=O)N[C@@H](CCCCN)C(=O)N[C@@H](CCCCN)C(=O)O (stereo not given in full)	–	Activity [2]: 11%
CCCCCCCCCCCC(=O)OC[C@H](CSC[C@@H](N)C(=O)NCCOCCP(=O)(O)O)OC(=O)CCCCCCCCCCC	119	–
CCCCCCCCCCCCCCCC(=O)OCC(CSC[C@@H](N)C(=O)N[C@@H](CO)C(=O)N[C@@H](CC(N)=O)C(=O)N[C@@H](CC(C)C)C(=O)N[C@H](C(=O)N[C@H](C(=O)N[C@@H](C)C(=O)N[C@@H](CO)C(=O)N[C@@H](CCC(=O)O)C(=O)N[C@H](C(=O)N[C@@H](CC(C)C)C(=O)O)[C@@H](C)O)[C@@H](C)CC)[C@@H](C)CC)OC(=O)CCCCCCCCCCCCCCC (stereo not given in full)	–	EC50 ([3]; hek293): 270 nM
CCCCCC(=O)OCC(CSC[C@@H](NC(=O)Cc1ccccc1)C(=O)N[C@@H](CO)C(=O)N[C@@H](CCCCN)C(=O)N[C@@H](CCCCN)C(=O)N[C@@H](CCCCN)C(=O)N[C@@H](CCCCN)C(=O)O)OC(=O)CCCCC (stereo not given in full)	–	Activity [2]: 0%
CCCCCCCC(=O)OCC(CSC[C@@H](NC(=O)CCCCC)C(=O)N[C@@H](CO)C(=O)N[C@@H](CCCCN)C(=O)N[C@@H](CCCCN)C(=O)N[C@@H](CCCCN)C(=O)N[C@@H](CCCCN)C(=O)O)OC(=O)CCCCCCC (stereo not given in full)	–	Activity [2]: 11%
CCCCCCCCCCCC(=O)OC[C@H](CSC[C@@H](N)C(=O)NCCOCCOCCN)OC(=O)CCCCCCCCCCC	1290	–
CCCCCCCCCCCC(=O)OC[C@H](CSC[C@@H](N)C(=O)NC(C)(C)CO)OC(=O)CCCCCCCCCCC	15500	–
CCCCCCCCCCCC(=O)OC[C@H](CSC[C@@H](N)C(=O)NCCCOCCOCCOCCCNC(=O)C(N)CS)OC(=O)CCCCCCCCCCC (stereo not given in full)	247	–

SMILES	EC50 [3] [nM]	also measured
CCCCCCCCCCCC(=O)OC[C@H](CSC[C@@H](N)C(=O)NCCCOCCOCCOCCCN)OC(=O)CCCCCCCCCCC	498	–
CCCCCCCCCCCCCCCC(=O)N[C@H](CSCC(COC(=O)CCCCCCC)OC(=O)CCCCCCC)C(=O)N[C@@H](CO)C(=O)N[C@@H](CCCCN)C(=O)N[C@@H](CCCCN)C(=O)N[C@@H](CCCCN)C(=O)N[C@@H](CCCCN)C(=O)O (stereo not given in full)	–	Activity [2]: 0%
CCCCCCCC(=O)OCC(CSC[C@@H](NC(=O)Cc1ccccc1)C(=O)N[C@@H](CO)C(=O)N[C@@H](CCCCN)C(=O)N[C@@H](CCCCN)C(=O)N[C@@H](CCCCN)C(=O)N[C@@H](CCCCN)C(=O)O)OC(=O)CCCCCCC (stereo not given in full)	–	Activity [2]: 11%
CCCCCCCCCCCC(=O)OC[C@H](CSC[C@@H](N)C(=O)NCCOCCC(F)(F)P(=O)(O)O)OC(=O)CCCCCCCCCCC	14	–
CCCCCCCCCCCC(=O)OC[C@H](CSC[C@@H](N)C(=O)NCCCC(C)(C)CO)OC(=O)CCCCCCCCCCC	30700	–
CCCCCCCCCCCCCC(=O)N[C@H](CSCC(COC(=O)CCCCCCC)OC(=O)CCCCCCC)C(=O)N[C@@H](CO)C(=O)N[C@@H](CCCCN)C(=O)N[C@@H](CCCCN)C(=O)N[C@@H](CCCCN)C(=O)N[C@@H](CCCCN)C(=O)O (stereo not given in full)	–	Activity ([2]; filed as agonist): 51%
CCCCCCCCCCCC(=O)OC[C@H](CSC[C@@H](N)C(=O)NCCOCCOCCOCCC(=O)O)OC(=O)CCCCCCCCCCC	900	–
CCCCCCCCCCCC(=O)OC[C@H](CSC[C@@H](N)C(=O)NCCc1ccc(OCCCP(=O)(O)O)cc1)OC(=O)CCCCCCCCCCC	410	–
CCC(=O)OCC(CSC[C@@H](NC(=O)Cc1ccccc1)C(=O)N[C@@H](CO)C(=O)N[C@@H](CCCCN)C(=O)N[C@@H](CCCCN)C(=O)N[C@@H](CCCCN)C(=O)N[C@@H](CCCCN)C(=O)O)OC(=O)CC (stereo not given in full)	–	Activity [2]: 0%
CCCCCCCCCCCCCC(=O)N[C@H](CSCC(COC(=O)CC)OC(=O)CC)C(=O)N[C@@H](CO)C(=O)N[C@@H](CCCCN)C(=O)N[C@@H](CCCCN)C(=O)N[C@@H](CCCCN)C(=O)N[C@@H](CCCCN)C(=O)O (stereo not given in full)	–	Activity ([2]; filed as agonist): 51%
CCCCCCCCCCCC(=O)OC[C@H](CSC[C@@H](N)C(=O)NCCOCCOCCOCCOCCP(=O)(O)O)OC(=O)CCCCCCCCCCC	38	–
CCCCCCCCCCCC(=O)OC[C@H](CSC[C@@H](N)C(=O)NCCCCN)OC(=O)CCCCCCCCCCC	1040	–
CCCCCCCCCCCC(=O)OC[C@H](CSC[C@@H](N)C(=O)N[C@@H](CO)C(=O)NCCOCCOCCOCCC(=O)O)OC(=O)CCCCCCCCCCC	4940	–
CCCCCCCCCCCC(=O)OC[C@H](CSC[C@@H](N)C(=O)NC(C)CCN(CC)CC)OC(=O)CCCCCCCCCCC (stereo not given in full)	257	–
CCCCCCCCCCCC(=O)OC[C@H](CSC[C@@H](N)C(=O)NC(CC)COC)OC(=O)CCCCCCCCCCC (stereo not given in full)	71.8	–
CCCCCCCCCCCC(=O)OC[C@H](CSC[C@@H](N)C(=O)NCCc1ccc(Oc2ccccc2)cc1)OC(=O)CCCCCCCCCCC	4080	–
CCCCCCCCCCCC(=O)OC[C@H](CSC[C@@H](N)C(=O)NCCCCCCN)OC(=O)CCCCCCCCCCC	1220	–
CCCCCCCCCCCC(=O)OC[C@H](CSC[C@@H](N)C(=O)NCCc1cccc(O)c1)OC(=O)CCCCCCCCCCC	> 21000	–
CCCCCCCCCCCC(=O)OC[C@H](CSC[C@@H](N)C(=O)N[C@H](C)COCCCP(=O)(O)O)OC(=O)CCCCCCCCCCC	19.2	–
CCCCCCCCCCCC(=O)OC[C@H](CSC[C@@H](N)C(=O)NCCOCCOCCOCCP(=O)(O)O)OC(=O)CCCCCCCCCCC	270	–
CCCCCCCCCCCCCCCC(=O)OCC(CSC[C@@H](NC(=O)Cc1ccccc1)C(=O)N[C@@H](CO)C(=O)N[C@@H](CCCCN)C(=O)N[C@@H](CCCCN)C(=O)N[C@@H](CCCCN)C(=O)N[C@@H](CCCCN)C(=O)O)OC(=O)CCCCCCCCCCCCCCC (stereo not given in full)	–	Activity ([2]; filed as agonist): > 100%
CCCCCCCCCCCCCCCC(=O)N[C@H](CSCC(COC(=O)CCCCCCCCCCCCCCC)OC(=O)CCCCCCCCCCCCCCC)C(=O)N[C@@H](CO)C(=O)N[C@@H](CCCCN)C(=O)N[C@@H](CCCCN)C(=O)N[C@@H](CCCCN)C(=O)N[C@@H](CCCCN)C(=O)O (stereo not given in full)	–	Activity ([2]; filed as agonist): 51%

Reference: ChEMBL document CHEMBL5226282, “TLR2 Agonistic Small Molecules: Detailed Structure-Activity Relationship, Applications, and Future Prospects” (J Med Chem, 2021)
